In patent publication US9718770B2, “Substituted thioureas as heat shock protein 70 inhibitors” (Institute of Pharmacology and Toxicology Academy of …, priority 2013, dated 2017):

Tests used:
BT474 = test: CDI of example compounds and Lapatinib (ATPlite cell survival); assay type: cell-based; set-up: key: CDI = AB/(A×B); <1 synergistic; details: compound 5 μM + Lapatinib 1 μM, 72 h; Lapatinib-sensitive human breast cancer cells; CDI<1 synergistic, <0.7 very significant, >1 antagonistic
Method: (§1) Cells: (BT474 and SK-BR3 are Lapatinib-sensitive human breast cancer cell strains; BT/LapR and SK/LapR are secondary Lapatinib-resistant human breast cancer cell strains upon Lapatinib stimulation; MDA-MB-361 and MDA-MB-453 are natural Lapatinib-resistant human breast cancer cell strains. BT474, MDA-MB-361, SK-BR3 and MDA-MB-453 are from American Type Culture Collection (ATCC))
(§2) In a 100 mm culture dish full of adherent cells, digestion with 1 ml 0.25% pancreatin (GIBCO) was carried out at 37° C. for 5 min, and the reaction was stopped with 2 ml medium (containing 10% FBS, GIBCO). The cells were dispersed and collected. After cell count, the cells were diluted to a concentration of 1×10^5 cells/ml, and were seeded to a 96-well plate at 50 μl/well, 5000 cell/well, 60 wells in total, PBS instead of cells was added to the wells of the outmost circle, and the incubation was carried out at 37° C. for 24 h for adherence.
(§3) For the sample group, samples to be tested were diluted with DMSO to a final concentration of 5 μM; to control wells, the medium containing the same concentration of solvent corresponding to the compound was added, the concentrations of the compounds were identical in each well, 5 wells in parallel were set for each concentration, 25 μL/well, and 25 μL medium was added to each well (for the combination group, 25 μL Lapatinib was added to reach a final concentration of 1 μM). The incubation was carried out at 37° C. for 72 h.
(§4) To each well, 50 μL ATPlite kit substrate solution was added. The plate was under shaking for 3 min, and was then placed in dark for 10 min. The lysis supernatant was drawn at 100 μL/well, and placed in a luminescent plate. The incubated luminescent plate was placed in an iluminescence apparatus, and the iluminescent value was read.
(§5) Data Processing Cell survival rate (%)=Experimental group RLU/control group RLU×100%
(§6) Coefficient of drug interaction (CDI) is used to evaluate the interaction of two drugs, CDI is calculated in accordance with the following formula: CDI=AB/(A×B)×100%. The calculation is performed according to the number of live cells (luminescent value), if CDI<1, the two drugs have a synergistic effect; if CDI<0.7, the synergistic effect is very significant; if CDI=1, the effect of the two drugs in combination is the sum of the effects of the two drugs; if CDI>1, the two drugs have an antagonistic effect.

MDA-MB-361 = test: as above; assay type: cell-based; set-up: key: CDI = AB/(A×B); <1 synergistic; details: compound 5 μM + Lapatinib 1 μM, 72 h; natural Lapatinib-resistant human breast cancer cells; CDI<1 synergistic
Method: as §1, §2, §3, §4, §5, §6

MDA-MB-453 = test: as above; assay type: cell-based; set-up: key: CDI = AB/(A×B); <1 synergistic; details: compound 5 μM + Lapatinib 1 μM, 72 h; natural Lapatinib-resistant human breast cancer cells; CDI<1 synergistic
Method: as §1, §2, §3, §4, §5, §6

SK-BR3 = test: as above; assay type: cell-based; set-up: key: CDI = AB/(A×B); <1 synergistic; details: compound 5 μM + Lapatinib 1 μM, 72 h; Lapatinib-sensitive human breast cancer cells; CDI<1 synergistic
Method: as §1, §2, §3, §4, §5, §6

BT/Lap^R1.0 = test: as above; assay type: cell-based; details: compound 5 μM + Lapatinib 1 μM, 72 h; secondary Lapatinib-resistant human breast cancer cells; CDI<1 synergistic
Method: as §1, §2, §3, §4, §5, §6

SK/Lap^R1.0 = test: as above; assay type: cell-based; details: compound 5 μM + Lapatinib 1 μM, 72 h; secondary Lapatinib-resistant human breast cancer cells; CDI<1 synergistic
Method: as §1, §2, §3, §4, §5, §6

Hsp70 ATPase = molecular target: T1, Hsp70 ATPase (Homo sapiens, UniProt P0DMV8); test: Inhibition of Hsp70 ATPase activity (malachite green); assay type: biochemical; details: 200 μM; repeated screening carried out twice; Hsp70/Hsp40, 1 mM ATP; read-out: Inhibitory rate (%) on activity of Hsp70 ATPase
T1 construct: made in house; host or cells: E. coli
Method: (1) Protein: Humanized Hsp70, Hsp40, expressed by E. coli.
(2) Sample to be tested: 26 compound solids with different colors and states. Positive drugs AZ (CAS:1054543-47-3) and VER 155008 (CAS: 1134156-31-2) were synthesized in the laboratory.
(4) ATPase Assay buffer: • 0.017% Triton X-100; • 100 mM Tris-HCl; • 20 mM KCl; • 6 mM MgCl2, pH 7.4.
1) 13.08 μl DnaK (0.15 mg/mL, 2.14 μM), 1.96 μl DnaJ (1 mg/mL, 25 μM) were dissolved in 7.96 μl Assay Buffer (0.017% Triton X-100, 100 mM Tris-HCl, 20 mM KCl, and 6 mM MgCl2, pH 7.4), and the resultant solution was added to each well of the 96 well plate;
2) to each well of the 96 well plate, 1 μL sample to be tested (5 mM) or DMSO (solvent) was added, and vortexed with a Vortex agitator for 10 min; and then standing at 37° C. for 30 min;
3) to each well, 1 μL 25 mM ATP was added, to trigger the enzymatic reaction; (in each well, the final reaction volume was 25 μL, the final concentration of DnaK was 1.12 μM, the final concentration of DnaJ was 1.96 μM, the final concentration of DMSO was 4%, the final concentration of Triton X-100 was 0.01%, the final concentration of ATP was 1 mM, and the final concentration of sample to be tested was 200 μM), the enzymatic reaction was carried out at 37° C. for 3 h;
4) 80 μL Malachite green staining solution was then added to each well, and was vortexed gently;
5) 10 μL of 34% citrate sodium was then added immediately, and vortexed gently, to stop the ATP hydrolysis not caused by ATPase;
6) the resultant mixture was mixed thoroughly at 37° C. for 15 min, and OD620 was measured.
The inhibitory rate of Hsp70 ATPase activity is calculated in accordance with the following formula: Inhibitory rate (%)=(DMSO well OD−Experimental well OD)/(DMSO well OD−Blank well OD)×100
Criteria for preliminary screening: during preliminary screening, an example compound is regarded as effective in inhibition as long as its inhibitory rate is above 20% for Hsp70 ATPase at 200 μM.

T1 sequence (P0DMV8 2-641 limits assumed): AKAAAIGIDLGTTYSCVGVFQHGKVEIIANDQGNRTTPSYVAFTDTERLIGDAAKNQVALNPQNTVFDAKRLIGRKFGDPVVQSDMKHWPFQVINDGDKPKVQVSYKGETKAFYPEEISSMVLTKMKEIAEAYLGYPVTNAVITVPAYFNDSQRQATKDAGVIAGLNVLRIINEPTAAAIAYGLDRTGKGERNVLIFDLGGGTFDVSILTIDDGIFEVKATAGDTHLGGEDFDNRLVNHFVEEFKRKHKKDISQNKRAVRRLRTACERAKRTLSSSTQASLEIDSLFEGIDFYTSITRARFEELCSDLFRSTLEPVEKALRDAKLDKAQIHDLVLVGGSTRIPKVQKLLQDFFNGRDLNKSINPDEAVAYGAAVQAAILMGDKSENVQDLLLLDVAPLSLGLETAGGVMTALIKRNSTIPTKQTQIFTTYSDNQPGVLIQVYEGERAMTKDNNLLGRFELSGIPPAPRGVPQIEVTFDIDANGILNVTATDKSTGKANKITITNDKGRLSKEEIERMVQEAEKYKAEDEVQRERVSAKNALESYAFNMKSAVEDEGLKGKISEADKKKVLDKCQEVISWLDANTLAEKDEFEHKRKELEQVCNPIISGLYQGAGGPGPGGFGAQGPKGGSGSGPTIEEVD

SMILES: COc1cc(/C=C/C(=O)NC(NC(=S)Nc2ccccn2)C(C)C)cc(OC)c1OC (stereo not shown) [Example 35, (2E)-N-[2-methyl-1-(3-pyridin-2-ylthioureido)propyl]-3-(3,4,5-trimethoxyphenyl) acrylamide]
- CDI of example compounds and Lapatinib, BT474 (BT474): 0.96
- CDI of example compounds and Lapatinib, MDA-MB-361 (MDA-MB-361): 0.86
- CDI of example compounds and Lapatinib, MDA-MB-453 (MDA-MB-453): 1.37
- CDI of example compounds and Lapatinib, SK-BR3 (SK-BR3): 0.99
- CDI of example compounds and Lapatinib, BT/Lap^R1.0 (BT/Lap^R1.0): 1.04
- CDI of example compounds and Lapatinib, SK/Lap^R1.0 (SK/Lap^R1.0): 0.9
- inhibition at 200 µM (Hsp70 ATPase): -6.13%

SMILES: COc1cc(/C=C/C(=O)NC(NC(=S)Nc2ccccc2)C(C)(C)C)cc(OC)c1OC (stereo not shown) [Example 26]
- CDI of example compounds and Lapatinib, BT474 (BT474): 1.02
- CDI of example compounds and Lapatinib, MDA-MB-361 (MDA-MB-361): 0.99
- CDI of example compounds and Lapatinib, MDA-MB-453 (MDA-MB-453): 0.89
- CDI of example compounds and Lapatinib, SK-BR3 (SK-BR3): 1.03
- CDI of example compounds and Lapatinib, BT/Lap^R1.0 (BT/Lap^R1.0): 0.96
- CDI of example compounds and Lapatinib, SK/Lap^R1.0 (SK/Lap^R1.0): 1.02
- inhibition at 200 µM (Hsp70 ATPase): 4.55%

SMILES: Cc1ccccc1NC(=S)NC(NC(=O)/C=C/c1ccccc1)C(C)(C)C (stereo not shown) [Example 48, N-[2,2-dimethyl-1-(3-o-methylphenylthioureido)propyl] cinnamamide]
- CDI of example compounds and Lapatinib, BT474 (BT474): 0.92
- CDI of example compounds and Lapatinib, MDA-MB-361 (MDA-MB-361): 1.15
- CDI of example compounds and Lapatinib, MDA-MB-453 (MDA-MB-453): 1.2
- CDI of example compounds and Lapatinib, SK-BR3 (SK-BR3): 1.15
- CDI of example compounds and Lapatinib, BT/Lap^R1.0 (BT/Lap^R1.0): 0.96
- CDI of example compounds and Lapatinib, SK/Lap^R1.0 (SK/Lap^R1.0): 0.99
- inhibition at 200 µM (Hsp70 ATPase): -0.88%

SMILES: CC(C)C(NC(=O)/C=C/c1ccccc1)NC(=S)Nc1ccccc1 (stereo not shown) [Example 42, (2E)-N-[2-methyl-1-(3-phenylthioureido)propyl] cinnamamide]
- CDI of example compounds and Lapatinib, BT474 (BT474): 0.92
- CDI of example compounds and Lapatinib, MDA-MB-361 (MDA-MB-361): 0.96
- CDI of example compounds and Lapatinib, MDA-MB-453 (MDA-MB-453): 1.15
- CDI of example compounds and Lapatinib, SK-BR3 (SK-BR3): 1.14
- CDI of example compounds and Lapatinib, BT/Lap^R1.0 (BT/Lap^R1.0): 0.99
- CDI of example compounds and Lapatinib, SK/Lap^R1.0 (SK/Lap^R1.0): 0.99
- inhibition at 200 µM (Hsp70 ATPase): -4.2%

SMILES: COc1cc(/C=C/C(=O)NC(CC(C)(C)C)NC(=S)Nc2ccccc2)cc(OC)c1OC (stereo not shown) [Example 32, (2E)-N-[3,3-dimethyl-1-(3-phenylthioureido)butyl]-3-(3,4,5-trimethoxyphenyl)acrylamide]
- CDI of example compounds and Lapatinib, BT474 (BT474): 0.65
- CDI of example compounds and Lapatinib, MDA-MB-361 (MDA-MB-361): 0.91
- CDI of example compounds and Lapatinib, MDA-MB-453 (MDA-MB-453): 1.42
- CDI of example compounds and Lapatinib, SK-BR3 (SK-BR3): 1.13
- CDI of example compounds and Lapatinib, BT/Lap^R1.0 (BT/Lap^R1.0): 1.25
- CDI of example compounds and Lapatinib, SK/Lap^R1.0 (SK/Lap^R1.0): 0.89
- inhibition at 200 µM (Hsp70 ATPase): 44.1%

SMILES: COc1cc(/C=C/C(=O)NC(NC(=S)NC2CCCCC2)C(C)(C)C)cc(OC)c1OC (stereo not shown) [Example 52, (2E)-N-[1-(3-cyclohexylthioureido)-2,2-dimethylpropyl]-3-(3,4,5-trimethoxyphenyl) acrylamide]
- CDI of example compounds and Lapatinib, BT474 (BT474): 0.56
- CDI of example compounds and Lapatinib, MDA-MB-361 (MDA-MB-361): 0.92
- CDI of example compounds and Lapatinib, MDA-MB-453 (MDA-MB-453): 1.18
- CDI of example compounds and Lapatinib, SK-BR3 (SK-BR3): 0.88
- CDI of example compounds and Lapatinib, BT/Lap^R1.0 (BT/Lap^R1.0): 0.86
- CDI of example compounds and Lapatinib, SK/Lap^R1.0 (SK/Lap^R1.0): 1.11
- inhibition at 200 µM (Hsp70 ATPase): 35.8%

SMILES: CC(C)(C)CC(NC(=O)/C=C/c1ccccc1)NC(=S)Nc1ccccc1 (stereo not shown) [Example 39, (2E)-N-[3,3-dimethyl-1-(3-phenylthioureido)butyl] cinnamamide]
- CDI of example compounds and Lapatinib, BT474 (BT474): 0.79
- CDI of example compounds and Lapatinib, MDA-MB-361 (MDA-MB-361): 0.92
- CDI of example compounds and Lapatinib, MDA-MB-453 (MDA-MB-453): 1.2
- CDI of example compounds and Lapatinib, SK-BR3 (SK-BR3): 1.2
- CDI of example compounds and Lapatinib, BT/Lap^R1.0 (BT/Lap^R1.0): 1.19
- CDI of example compounds and Lapatinib, SK/Lap^R1.0 (SK/Lap^R1.0): 0.95
- inhibition at 200 µM (Hsp70 ATPase): 18.4%

SMILES: COc1cc(/C=C/C(=O)NC(NC(=S)NC2CCCCC2)C(C)C)cc(OC)c1OC (stereo not shown) [Example 53, (2E)-N-[1-(3-cyclohexylthioureido)-2-methylpropyl]-3-(3,4,5-trimethoxyphenyl) acrylamide]
- CDI of example compounds and Lapatinib, BT474 (BT474): 0.82
- CDI of example compounds and Lapatinib, MDA-MB-361 (MDA-MB-361): 1.19
- CDI of example compounds and Lapatinib, MDA-MB-453 (MDA-MB-453): 1.33
- CDI of example compounds and Lapatinib, SK-BR3 (SK-BR3): 0.97
- CDI of example compounds and Lapatinib, BT/Lap^R1.0 (BT/Lap^R1.0): 0.8
- CDI of example compounds and Lapatinib, SK/Lap^R1.0 (SK/Lap^R1.0): 1.23
- inhibition at 200 µM (Hsp70 ATPase): 24.4%

SMILES: O=C(/C=C/c1ccccc1)NC(NC(=S)Nc1ccccc1)C1CC1 (stereo not shown) [Example 41]
- CDI of example compounds and Lapatinib, BT474 (BT474): 0.91
- CDI of example compounds and Lapatinib, MDA-MB-361 (MDA-MB-361): 0.91
- CDI of example compounds and Lapatinib, MDA-MB-453 (MDA-MB-453): 1.07
- CDI of example compounds and Lapatinib, SK-BR3 (SK-BR3): 1.09
- CDI of example compounds and Lapatinib, BT/Lap^R1.0 (BT/Lap^R1.0): 0.99
- CDI of example compounds and Lapatinib, SK/Lap^R1.0 (SK/Lap^R1.0): 1.02
- inhibition at 200 µM (Hsp70 ATPase): 22.5%

SMILES: COc1cc(/C=C/C(=O)NC(NC(=S)Nc2ccccc2)C2CC2)cc(OC)c1OC (stereo not shown) [Example 28, (2E)-N-[cyclopropyl-(3-phenylthioureido)-methyl]-3-(3,4,5-trimethoxyphenyl) acrylamide]
- CDI of example compounds and Lapatinib, BT474 (BT474): 1.07
- CDI of example compounds and Lapatinib, MDA-MB-361 (MDA-MB-361): 0.93
- CDI of example compounds and Lapatinib, MDA-MB-453 (MDA-MB-453): 1.21
- CDI of example compounds and Lapatinib, SK-BR3 (SK-BR3): 1.06
- CDI of example compounds and Lapatinib, BT/Lap^R1.0 (BT/Lap^R1.0): 0.99
- CDI of example compounds and Lapatinib, SK/Lap^R1.0 (SK/Lap^R1.0): 0.95
- inhibition at 200 µM (Hsp70 ATPase): 50.5%
